Data reported in the SangsterLogP compilation.

Test: method code SF-AS, from DOI: 10.1021/jf00107a040

Structure (SMILES)	logP
CCCCOC(=O)Nc1ccccc1	3.3
Cc1ccc(NC(=O)N(C)C)cc1Cl	2.41
Cc1cccc(NC(N)=O)c1	1.29
NC(=O)Nc1ccc(Oc2ccccc2)cc1	2.8
CC(=O)Nc1cccc(Br)c1	2.04
CNC(=O)Nc1ccccc1	1.17
CN(C)C(=O)Nc1cccc(F)c1	1.37
Cc1cc(NC(N)=O)ccc1F	1.59
O=C(Nc1ccccc1)NC1CCCCCC1	2.95
CCOC(=O)Nc1ccccc1	2.26
CC(C)OC(=O)Nc1ccccc1	2.6
O=C(Nc1ccccc1)NC1CCCCC1	2.77
CC(=O)Nc1ccc(Br)cc1	2.14
COc1ccc(NC(N)=O)cc1Cl	1.37
CN(C)C(=O)Nc1ccc(F)cc1	1.13
O=[N+]([O-])c1ccc(Br)cc1	2.6
O=C(Nc1ccccc1)NC1CCCC1	2.65
CN(C)C(=O)Nc1cccc(C(F)(F)F)c1	2.42
CNC(=O)Nc1ccc(C)c(Cl)c1	2.61
CON(C)C(=O)Nc1ccc(Br)c(Cl)c1	3.09
O=C(Nc1ccccc1)NC1CC1	1.65
CN(C)C(=O)Nc1cccc(Cl)c1	2.01

Continued, values first:

logP	Structure (SMILES)
2.49	Cc1cc(NC(N)=O)ccc1Br
2.02	CC(=O)Nc1cccc(Cl)c1
2.2	CC(=O)Nc1cccc(C(F)(F)F)c1
1.82	COc1ccc(NC(C)=O)cc1Cl
2.53	Cc1cc(N)ccc1Br
3.8	CCCCCOC(=O)Nc1ccccc1
1.9	Cc1cc(C)cc(NC(=O)N(C)C)c1
1.73	COc1cccc(NC(=O)N(C)C)c1
2.18	CNC(=O)Nc1cccc(Cl)c1
1.52	CC(=O)Nc1cccc(C)c1
1.64	COc1ccc(NC(=O)N(C)C)cc1Cl
2.92	Cc1cc(NC(=O)N(C)C)cc(C)c1Br
2.8	CCCOC(=O)Nc1ccccc1
1.33	Cc1ccc(NC(=O)N(C)C)cc1
1.76	CNC(=O)Nc1ccc(OC)c(Cl)c1
0.83	COc1ccc(NC(=O)N(C)C)cc1
1.46	CC(=O)Nc1cccc(F)c1

Test: method code SF-RC, from DOI: 10.1021/jf00107a040

Structure (SMILES)	logP
CNC(=O)ON=CC(C)(C)S(C)(=O)=O	-0.57

Test: method code SF-GLC, from DOI: 10.1021/jf00107a040

Structure (SMILES)	logP
CNC(=O)Nc1ccc(Cl)c(Cl)c1	2.94
NC(=O)Nc1cccc(Cl)c1	1.82
NC(=O)Nc1cccc(C(F)(F)F)c1	2.31
COc1ccc(N)cc1Cl	1.85
NC(=O)Nc1ccc(Cl)c(Cl)c1	2.64
NC(=O)Nc1ccc(F)cc1	1.04

More lines, now with the values ahead:

logP	Structure (SMILES)
1.29	NC(=O)Nc1cccc(F)c1
1.27	NC(=O)Nc1ccccc1Cl
3.09	COC(=O)Nc1ccc(Cl)c(Cl)c1
1.98	NC(=O)Nc1ccc(Br)cc1
0.88	NC(=O)Nc1ccccc1F
2.08	NC(=O)Nc1cccc(Br)c1
